PubChem BioAssay (NCI)
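Assay format: 96-well plates, 48-hour exposure. TGI: concentration producing complete growth inhibition.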

Assays:
Assay in all cases: NCI anticancer screen, dose series, 48 h
786-0 renal = system: 786-0 renal
A498 renal = system: A498 renal
A549 NSCLC = system: A549 NSCLC
ACHN renal = system: ACHN renal
BT-549 breast = system: BT-549 breast
CAKI-1 renal = system: CAKI-1 renal
CCRF-CEM leukemia = system: CCRF-CEM leukemia
COLO 205 colon = system: COLO 205 colon
DU-145 prostate = system: DU-145 prostate
EKVX NSCLC = system: EKVX NSCLC
HCC-2998 colon = system: HCC-2998 colon
HCT-116 colon = system: HCT-116 colon
HCT-15 colon = system: HCT-15 colon
HOP-62 NSCLC = system: HOP-62 NSCLC
HOP-92 NSCLC = system: HOP-92 NSCLC
HT29 colon = system: HT29 colon
IGROV1 ovarian = system: IGROV1 ovarian
K-562 leukemia = system: K-562 leukemia
KM12 colon = system: KM12 colon
LOX IMVI melanoma = system: LOX IMVI melanoma
M14 melanoma = system: M14 melanoma
MCF7 breast = system: MCF7 breast
MDA-MB-435 = system: MDA-MB-435
MOLT-4 leukemia = system: MOLT-4 leukemia
NCI-H226 lung = system: NCI-H226 lung
NCI-H23 lung = system: NCI-H23 lung
NCI-H460 lung = system: NCI-H460 lung
NCI/ADR-RES ovarian = system: NCI/ADR-RES ovarian
OVCAR-3 ovarian = system: OVCAR-3 ovarian
OVCAR-5 ovarian = system: OVCAR-5 ovarian
OVCAR-8 ovarian = system: OVCAR-8 ovarian
PC-3 prostate = system: PC-3 prostate
RPMI-8226 leukemia = system: RPMI-8226 leukemia
SF-295 CNS = system: SF-295 CNS
SF-539 CNS = system: SF-539 CNS
SK-MEL-2 melanoma = system: SK-MEL-2 melanoma
SK-MEL-28 melanoma = system: SK-MEL-28 melanoma
SK-MEL-5 melanoma = system: SK-MEL-5 melanoma
SK-OV-3 ovarian = system: SK-OV-3 ovarian
SN12C renal = system: SN12C renal
SNB-19 CNS = system: SNB-19 CNS
SNB-75 CNS = system: SNB-75 CNS
SR leukemia = system: SR leukemia
SW-620 colon = system: SW-620 colon
T-47D breast = system: T-47D breast
U251 CNS = system: U251 CNS
UACC-257 melanoma = system: UACC-257 melanoma
UACC-62 melanoma = system: UACC-62 melanoma
UO-31 renal = system: UO-31 renal

## O=C(c1ccc(Cl)cc1Cl)N(C(=O)N1CCC(c2ccccc2)CC1)c1ccccc1
786-0 renal
  TGI: > 100 µM
A498 renal
  TGI: > 100 µM
A549 NSCLC
  TGI: > 100 µM
ACHN renal
  TGI: > 100 µM
BT-549 breast
  TGI: > 100 µM
CAKI-1 renal
  TGI: > 100 µM
CCRF-CEM leukemia
  TGI: > 100 µM
COLO 205 colon
  TGI: > 100 µM
DU-145 prostate
  TGI: > 100 µM
EKVX NSCLC
  TGI: > 100 µM
HCC-2998 colon
  TGI: > 100 µM
HCT-116 colon
  TGI: > 100 µM
HCT-15 colon
  TGI: > 100 µM
HOP-62 NSCLC
  TGI: > 100 µM
HOP-92 NSCLC
  TGI: > 100 µM
HT29 colon
  TGI: > 100 µM
IGROV1 ovarian
  TGI: > 100 µM
K-562 leukemia
  TGI: > 100 µM
KM12 colon
  TGI: > 100 µM
LOX IMVI melanoma
  TGI: > 100 µM
M14 melanoma
  TGI: > 100 µM
MCF7 breast
  TGI: > 100 µM
MDA-MB-435
  TGI: > 100 µM
MOLT-4 leukemia
  TGI: 75 µM
NCI-H226 lung
  TGI: > 100 µM
NCI-H23 lung
  TGI: > 100 µM
NCI-H460 lung
  TGI: > 100 µM
NCI/ADR-RES ovarian
  TGI: > 100 µM
OVCAR-3 ovarian
  TGI: > 100 µM
OVCAR-5 ovarian
  TGI: > 100 µM
OVCAR-8 ovarian
  TGI: > 100 µM
PC-3 prostate
  TGI: > 100 µM
RPMI-8226 leukemia
  TGI: > 100 µM
SF-295 CNS
  TGI: > 100 µM
SF-539 CNS
  TGI: > 100 µM
SK-MEL-2 melanoma
  TGI: > 100 µM
SK-MEL-28 melanoma
  TGI: > 100 µM
SK-MEL-5 melanoma
  TGI: > 100 µM
SK-OV-3 ovarian
  TGI: > 100 µM
SN12C renal
  TGI: > 100 µM
SNB-19 CNS
  TGI: > 100 µM
SNB-75 CNS
  TGI: > 100 µM
SR leukemia
  TGI: > 100 µM
SW-620 colon
  TGI: > 100 µM
T-47D breast
  TGI: > 100 µM
U251 CNS
  TGI: > 100 µM
UACC-257 melanoma
  TGI: > 100 µM
UACC-62 melanoma
  TGI: > 100 µM
UO-31 renal
  TGI: > 100 µM
